The record followed here is ChEMBL document CHEMBL1122195, “Effect of 4'-halogen substitution on the mutagenicity of trans-4-acetamidostilbene and trans-4-(N-hydroxyacetamido)stilbene in the Salmonella typhimurium test system” (1982).

The subject of the assay is Salmonella typhimurium. Description: Comparative mutagenic activity toward Salmonella Typhimurium strain TA-100 at concentration of 10 nmol/plate. In kind it is functional, Salmonella enterica subsp. enterica serovar Typhimurium.
For the compound `CC(=O)Nc1ccc(/C=C/c2ccccc2)cc1`, the Revertants/plate worked out at 385.
For `CC(=O)N(O)c1ccc(/C=C/c2ccccc2)cc1` the value was 1218.
The figure for `CC(=O)N(O)c1ccc(/C=C/c2ccc(Cl)cc2)cc1` is 356.
For `CC(=O)N(O)c1ccc(/C=C/c2ccc(Br)cc2)cc1` the value was 374; for `CC(=O)N(O)c1ccc(/C=C/c2ccc(F)cc2)cc1`, 825.
Regarding `CC(=O)Nc1ccc(/C=C/c2ccc(Cl)cc2)cc1`, the Revertants/plate is given as 382.
The figure for `CC(=O)Nc1ccc(/C=C/c2ccc(F)cc2)cc1` is 632; for `CC(=O)Nc1ccc(/C=C/c2ccc(Br)cc2)cc1` it is 211.
